# Earlier results as cited in US9511020B2, “Controlled release corticosteroid compositions and methods for the treatment of otic disorders” (priority 2008, dated 2016).
# Tests used:
# [1] = relative potency
# [2] = for Glucocorticoid potency: relative potency
Structure (SMILES),Mineralocorticoid potency [1],Glucocorticoid potency [2],potency relative to endogenous cortisol ([2]; times the potency of endogenous cortisol)
C[C@]12CCC(=O)C=C1CC[C@@H]1[C@@H]2[C@@H](O)C[C@]2(C=O)[C@@H](C(=O)CO)CC[C@@H]12 [aldosterone],1.0,0.07,
C[C@]12CCC(=O)C=C1CC[C@@H]1[C@@H]2[C@@H](O)C[C@@]2(C)[C@H]1CC[C@]2(O)C(=O)CO [cortisol],0.054,1,
C=C1C[C@H]2[C@@H]3CCC4=CC(=O)C=C[C@]4(C)[C@H]3[C@@H](O)C[C@]2(C)[C@@]1(O)C(=O)CO [prednylidene],0.0011,182,
C[C@]12C=CC(=O)C=C1CC[C@H]1[C@@H]3C[C@@H](O)[C@](O)(C(=O)CO)[C@@]3(C)C[C@H](O)[C@@]12F [triamcinolone],0.0002,0.35,
C[C@]12C=CC(=O)C=C1CC[C@@H]1[C@@H]2[C@@H](O)C[C@@]2(C)[C@H]1CC[C@]2(O)C(=O)CO [prednisolone],0.013,1.7,4-5 times
